Reference: patent US20260015358A1, “BICYCLIC DERIVATIVES, COMPOSITIONS AND USES THEREOF” (Danatlas Pharmaceuticals Co., Ltd., priority 2023, published 2026)

Molecular target: WRN [UniPro: Q14191 (WRN_HUMAN), N500-C946] (Homo sapiens (Human), UniProt Q14191)
Assay: WRN unwinding assay (FORKF DNA, fluorescence)
Format: biochemical
Details: Table 14
Method: WRN unwinding assay was initiated to evaluate potential inhibitory effect of compounds for WEN helicase activity. WRN [UniPro: Q14191 (WRN_HUMAN), N500-C946] was expressed and purified in insect system and stored at −80° C. in aliquots. […] Compounds dissolved in DMSO (Sigma, D8418) were plated into a 96-well intermediate plate (BioFil, VWP-032-096) for 3-fold serial titration for 10 points using DMSO, and well-to-well transfer the titrated compounds into another 96-well intermediate plate including assay buffer in advance. Shake the 96-well intermediate plate at 600 rpm for 10 min. to fully mix. Specifically, a 3× working mixture of WRN was diluted to a concentration of 60 nM in assay buffer. […] After centrifuging at 1000 rpm and shaking at 500 rpm, the assay plate was pre-incubated for 30 min. Then, […] 3×FORKF DNA and ATP working mixture was dispensed into assay plate. Plate was sealed, centrifuged and incubated for an additional 40 min. at 25° C. […] Each concentration of compound was tested in duplicates in the assay plate. Average fluorescence signal of high control (Wells with 1% DMSO) was calculated as High Control (HC). Average fluorescence signal of low control (Wells with no WRN protein) was calculated as Low control (LC).
IC50 values were determined by fitting the data to the standard 4 parameters with Hill Slope using GraphPad Prism software.

Sequence of WRN [UniPro: Q14191 (WRN_HUMAN), N500-C946] (Q14191 500-946): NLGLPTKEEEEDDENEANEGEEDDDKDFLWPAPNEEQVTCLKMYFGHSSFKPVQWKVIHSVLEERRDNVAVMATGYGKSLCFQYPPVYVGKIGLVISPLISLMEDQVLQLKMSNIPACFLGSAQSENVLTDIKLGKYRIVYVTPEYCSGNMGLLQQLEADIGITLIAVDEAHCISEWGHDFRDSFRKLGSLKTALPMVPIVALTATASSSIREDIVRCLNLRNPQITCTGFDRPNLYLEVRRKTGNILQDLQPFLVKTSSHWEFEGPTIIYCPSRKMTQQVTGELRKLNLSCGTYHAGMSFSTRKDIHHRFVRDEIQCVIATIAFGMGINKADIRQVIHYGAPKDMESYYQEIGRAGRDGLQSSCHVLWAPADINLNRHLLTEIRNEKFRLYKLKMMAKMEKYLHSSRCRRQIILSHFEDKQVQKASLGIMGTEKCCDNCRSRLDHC

First: CCc1c(N2CCN(C(=O)CNC(=O)c3ccccc3F)CC2)c(=O)n2nc(N3CCOCC3)nc2n1CC(=O)Nc1ccc(C(F)(F)F)cc1Cl [Example 245, N-(2-(4-(4-(2-((2-Chloro-4-(trifluoromethyl)phenyl)amino)-2-oxoethyl)-5-ethyl-2-morpholino-7-oxo-4,7-dihydro-[1,2,4]triazolo[1,5-a]pyrimidin-6-yl)piperazin-1-yl)-2-oxoethyl)-2-fluorobenzamide]
Second: CCc1c(N2CCN(C(=O)CNC(=O)c3ccccc3F)CC2)c(=O)n2nc(N3CC(C#N)C3)nc2n1CC(=O)Nc1ccc(C(F)(F)F)cc1Cl [Example 243, N-(2-(4-(4-(2-((2-Chloro-4-(trifluoromethyl)phenyl)amino)-2-oxoethyl)-2-(3-cyanoazetidin-1-yl)-5-ethyl-7-oxo-4,7-dihydro-[1,2,4]triazolo[1,5-a]pyrimidin-6-yl)piperazin-1-yl)-2-oxoethyl)-2-fluorobenzamide]
The IC50 of the first is lower: under 100 nM for the first, 100 to 1000 nM for the second.

CCc1c(N2CCN(C(=O)CCO)CC2)c(=O)n2nc(C3=CCOCC3)nc2n1CC(=O)Nc1ccc(C(F)(F)F)cc1Cl [Example 16, N-(2-Chloro-4-(trifluoromethyl)phenyl)-2-(2-(3,6-dihydro-2H-pyran-4-yl)-5-ethyl-6-(4-(3-hydroxypropanoyl)piperazin-1-yl)-7-oxo-[1,2,4]triazolo[1,5-a]pyrimidin-4(7H)-yl)acetamide] and CCNC(=O)N1CCN(c2c(CC)n(CC(=O)Nc3ccc(C(F)(F)F)cc3Cl)c3nc(C4=CCOCC4)nn3c2=O)CC1 [Example 15, 4-(4-(2-((2-Chloro-4-(trifluoromethyl)phenyl)amino)-2-oxoethyl)-2-(3,6-dihydro-2H-pyran-4-yl)-5-ethyl-7-oxo-4,7-dihydro-[1,2,4]triazolo[1,5-a]pyrimidin-6-yl)-N-ethylpiperazine-1-carboxamide] fall in the same range of IC50: 100 to 1000 nM for the first, 100 to 1000 nM for the second.

O=C(Cn1c(O)c(N2CCN(C(=O)CNC(=O)c3ccccc3)CC2)c(=O)n2nc(C3=CCOCC3)nc12)Nc1ccc(C(F)(F)F)cc1Cl [Example 142, N-(2-(4-(4-(2-((2-Chloro-4-(trifluoromethyl)phenyl)amino)-2-oxoethyl)-2-(3,6-dihydro-2H-pyran-4-yl)-5-hydroxy-7-oxo-4,7-dihydro-[1,2,4]triazolo[1,5-a]pyrimidin-6-yl)piperazin-1-yl)-2-oxoethyl)benzamide] and CCc1c(N2CCN(C(=O)CNC(=O)c3cccc(Cl)c3)CC2)c(=O)n2nc(C3=CCOCC3)nc2n1CC(=O)Nc1ccc(C(F)(F)F)cc1Cl [Example 175, 3-Chloro-N-(2-(4-(4-(2-((2-chloro-4-(trifluoromethyl)phenyl)amino)-2-oxoethyl)-2-(3,6-dihydro-2H-pyran-4-yl)-5-ethyl-7-oxo-4,7-dihydro-[1,2,4]triazolo[1,5-a]pyrimidin-6-yl)piperazin-1-yl)-2-oxoethyl)benzamide] fall in the same range of IC50: 100 to 1000 nM for the first, 100 to 1000 nM for the second.

First: CCc1c(N2CCN(C(=O)N(C)C)CC2)c(=O)n2nc(C3=CCOCC3)nc2n1CC(=O)Nc1ccc(C(F)(F)F)cc1Cl [Example 10, 4-(4-(2-((2-Chloro-4-(trifluoromethyl)phenyl)amino)-2-oxoethyl)-2-(3,6-dihydro-2H-pyran-4-yl)-5-ethyl-7-oxo-4,7-dihydro-[1,2,4]triazolo[1,5-a]pyrimidin-6-yl)-N,N-dimethylpiperazine-1-carboxamide]
Second: CCc1c(N2CCN(C(=O)C3CC3)CC2)c(=O)n2nc(C3=CCOCC3)nc2n1CC(=O)Nc1ccc(C(F)(F)F)cc1Cl [Example 13, N-(2-Chloro-4-(trifluoromethyl)phenyl)-2-(6-(4-(cyclopropanecarbonyl)piperazin-1-yl)-2-(3,6-dihydro-2H-pyran-4-yl)-5-ethyl-7-oxo-[1,2,4]triazolo[1,5-a]pyrimidin-4(7H)-yl)acetamide]
The IC50 of the first is higher: over 1000 nM for the first, 100 to 1000 nM for the second.

Compared with CCc1c(N2CCN(C(=O)CNC(=O)c3ccccc3N3CCOCC3)CC2)c(=O)n2nc(N3CCOCC3)nc2n1CC(=O)Nc1ccc(C(F)(F)F)cc1Cl [Example 247, N-(2-(4-(4-(2-((2-Chloro-4-(trifluoromethyl)phenyl)amino)-2-oxoethyl)-5-ethyl-2-morpholino-7-oxo-4,7-dihydro-[1,2,4]triazolo[1,5-a]pyrimidin-6-yl)piperazin-1-yl)-2-oxoethyl)-2-morpholinobenzamide], CCc1c(N2CCN(C(=O)CNC(=O)c3ccccc3F)CC2)c(=O)n2nc(OCCOC)nc2n1CC(=O)Nc1ccc(C(F)(F)F)cc1Cl [Example 240, N-(2-(4-(4-(2-((2-Chloro-4-(trifluoromethyl)phenyl)amino)-2-oxoethyl)-5-ethyl-2-(2-methoxyethoxy)-7-oxo-4,7-dihydro-[1,2,4]triazolo[1,5-a]pyrimidin-6-yl)piperazin-1-yl)-2-oxoethyl)-2-fluorobenzamide] is higher in IC50: 100 to 1000 nM for the first, over 1000 nM for the second.

CCc1c(N2CCN(C(=O)CNC(=O)c3ccc(Cl)cc3Cl)CC2)c(=O)n2nc(C3=CCOCC3)nc2n1CC(=O)Nc1ccc(C(F)(F)F)cc1Cl [Example 127, 2,4-Dichloro-N-(2-(4-(4-(2-((2-chloro-4-(trifluoromethyl)phenyl)amino)-2-oxoethyl)-2-(3,6-dihydro-2H-pyran-4-yl)-5-ethyl-7-oxo-4,7-dihydro-[1,2,4]triazolo[1,5-a]pyrimidin-6-yl)piperazin-1-yl)-2-oxoethyl)benzamide] and CCc1c(N2CCN(C(=O)CNC(=O)CN3CCCC3)CC2)c(=O)n2nc(C3=CCOCC3)nc2n1CC(=O)Nc1ccc(C(F)(F)F)cc1Cl [Example 339, N-(2-Chloro-4-(trifluoromethyl)phenyl)-2-(2-(3,6-dihydro-2H-pyran-4-yl)-5-ethyl-7-oxo-6-(4-((2-(pyrrolidin-1-yl)acetyl)glycyl)piperazin-1-yl)-[1,2,4]triazolo[1,5-a]pyrimidin-4(7H)-yl)acetamide] fall in the same range of IC50: 100 to 1000 nM for the first, 100 to 1000 nM for the second.

Compared with CCc1c(N2CCN(C(=O)CNC(=O)c3ccccc3F)CC2)c(=O)n2nc(C3=CCOCC3)nc2n1CC(=O)Nc1nc(C)cs1 [Example 159, N-(2-(4-(2-(3,6-Dihydro-2H-pyran-4-yl)-5-ethyl-4-(2-((4-methylthiazol-2-yl)amino)-2-oxoethyl)-7-oxo-4,7-dihydro-[1,2,4]triazolo[1,5-a]pyrimidin-6-yl)piperazin-1-yl)-2-oxoethyl)-2-fluorobenzamide], CCc1c(N2CCN(C(=O)CNC(=O)c3ccccc3F)CC2)c(=O)n2nc(C3=CCOCC3)nc2n1CC(=O)Nc1cc(C)no1 [Example 160, N-(2-(4-(2-(3,6-Dihydro-2H-pyran-4-yl)-5-ethyl-4-(2-((3-methylisoxazol-5-yl)amino)-2-oxoethyl)-7-oxo-4,7-dihydro-[1,2,4]triazolo[1,5-a]pyrimidin-6-yl)piperazin-1-yl)-2-oxoethyl)-2-fluorobenzamide] is higher in IC50: 100 to 1000 nM for the first, over 1000 nM for the second.

CCc1c(N2CCN(C(=O)c3[nH]c(=O)oc3C(F)(F)F)CC2)c(=O)n2nc(C3=CCOCC3)nc2n1CC(=O)Nc1ccc(C(F)(F)F)cc1Cl [Example 317, N-(2-Chloro-4-(trifluoromethyl)phenyl)-2-(2-(3,6-dihydro-2H-pyran-4-yl)-5-ethyl-7-oxo-6-(4-(2-oxo-5-(trifluoromethyl)-2,3-dihydrooxazole-4-carbonyl)piperazin-1-yl)-[1,2,4]triazolo[1,5-a]pyrimidin-4(7H)-yl)acetamide] showed an IC50 of 100 to 1000 nM.
